Test results from US20260015350A1, “AZAQUINAZOLINE PAN-KRAS INHIBITORS” (Mirati Therapeutics, Inc., priority 2022, published 2026).

Experiments:
[1] = tested on: KRas-mediated phosphorylation of ERK in PSN1 cells; experiment: Inhibition of KRas-mediated phosphorylation of ERK (Cisbio HTRF pERK), PSN1 cells; type: cell-based; settings: Homo sapiens
Method in brief: (§1)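 Overnight culture at 37° C./5% CO2 in RPMI containing 10% FBS, seeded 6,000 cells per well, preceded the assay. A covered 4-hour incubation at room temperature followed, then HTRF signal for phosphorylated ERK was measured.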

KRas^G12V = biological target: T1, KRas^G12V (Homo sapiens, UniProt P01116, G12V); experiment: KRas binding assay (TR-FRET tracer displacement), KRas G12V
T1 construct: Biotinylated KRas (corresponding to amino acids 1-169, produced at Accelegan Inc.); biotin (biotinylated); purchased Accelegan Inc

KRas^G12D = biological target: T2, KRas^G12D (Homo sapiens, UniProt P01116, G12D); experiment: KRas binding assay (TR-FRET tracer displacement), KRas G12D
T2 construct: Biotinylated KRas (corresponding to amino acids 1-169, produced at Accelegan Inc.); biotin (biotinylated); purchased Accelegan Inc

[2] = tested on: KRas-mediated phosphorylation of ERK in HCT116 cells; experiment: Inhibition of KRas-mediated phosphorylation of ERK (Cisbio HTRF pERK), HCT116 cells; type: cell-based; settings: Homo sapiens, HCT-116, HTRF pERK
Method in brief: (§2)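 Compound treatment lasts 3 hrs on 6,000 seeded cells, testing 10 doses from a 10 uM top concentration in 3-fold decrements at 0.8% final DMSO. Trametinib at 0.2 uM defines the Min signal. Detection is HTRF on cold-lysed cell extracts.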

[3] = tested on: KRas-mediated phosphorylation of ERK in A549 cells; experiment: Inhibition of KRas-mediated phosphorylation of ERK (Cisbio HTRF pERK), A549 cells; type: cell-based; settings: Homo sapiens, HTRF pERK
Method in brief: as §2

[4] = tested on: KRas-mediated phosphorylation of ERK in AsPC-1 cells; experiment: Inhibition of KRas-mediated phosphorylation of ERK (Cisbio HTRF pERK), AsPC-1 cells; type: cell-based; settings: Homo sapiens, ASPC1, AsPC-1 cells; HTRF pERK
Method in brief: (§3)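 H358, H727, H460 and AsPC-1 cells seeded at 6,000/well, treated 3 hrs with 10-dose 3-fold dilutions from 10 uM (0.8% DMSO); 0.2 uM trametinib as min control. Lysed 40 min at 4° C; lysate incubated 2 hrs at room temperature with d2/cryptate antibodies, HTRF read.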

[5] = tested on: KRas-mediated phosphorylation of ERK in H358 cells; experiment: Inhibition of KRas-mediated phosphorylation of ERK (Cisbio HTRF pERK), H358 cells; type: cell-based; settings: Homo sapiens, NCI-H358, HTRF pERK
Method in brief: as §3

[6] = tested on: KRas-mediated phosphorylation of ERK in MKN1 cells; experiment: Inhibition of KRas-mediated phosphorylation of ERK (Cisbio HTRF pERK), MKN1 cells; type: cell-based; settings: Homo sapiens, MKN-1
Method in brief: as §1

[7] = tested on: KRas-mediated phosphorylation of ERK in H727 cells; experiment: Inhibition of KRas-mediated phosphorylation of ERK (Cisbio HTRF pERK), H727 cells; type: cell-based; settings: Homo sapiens, NCI-H727, H727 cells; HTRF pERK
Method in brief: as §3

[8] = tested on: KRas-mediated phosphorylation of ERK in H460 cells; experiment: Inhibition of KRas-mediated phosphorylation of ERK (Cisbio HTRF pERK), H460 cells; type: cell-based; settings: Homo sapiens, NCI-H460, HTRF pERK
Method in brief: as §3

KRas^G12R = biological target: T3, KRas^G12R (Homo sapiens, UniProt P01116, G12R); experiment: KRas binding assay (TR-FRET tracer displacement), KRas G12R
T3 construct: Biotinylated KRas (corresponding to amino acids 1-169, produced at Accelegan Inc.); biotin (biotinylated); purchased Accelegan Inc
T3 sequence (P01116 1-169 isoform P01116-2 G12R): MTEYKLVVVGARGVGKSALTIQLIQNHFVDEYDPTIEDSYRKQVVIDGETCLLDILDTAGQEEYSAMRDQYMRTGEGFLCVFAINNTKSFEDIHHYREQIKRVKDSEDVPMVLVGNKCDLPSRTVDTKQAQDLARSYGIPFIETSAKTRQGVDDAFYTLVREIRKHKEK

T1 sequence (P01116 1-169 isoform P01116-2 G12V): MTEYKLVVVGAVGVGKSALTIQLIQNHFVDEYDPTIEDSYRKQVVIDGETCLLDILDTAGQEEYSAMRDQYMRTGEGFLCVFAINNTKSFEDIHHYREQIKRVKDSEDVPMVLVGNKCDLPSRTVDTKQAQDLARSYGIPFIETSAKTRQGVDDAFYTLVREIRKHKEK
T2 sequence (P01116 1-169 isoform P01116-2 G12D): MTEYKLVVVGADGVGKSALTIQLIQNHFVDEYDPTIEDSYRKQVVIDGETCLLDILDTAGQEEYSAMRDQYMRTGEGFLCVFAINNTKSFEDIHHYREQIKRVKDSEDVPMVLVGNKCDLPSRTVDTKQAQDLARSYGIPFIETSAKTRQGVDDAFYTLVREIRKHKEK

SMILES	IC50 [1]	IC50 (KRas^G12V)	IC50 (KRas^G12D)	IC50 [2]	IC50 [3]	IC50 [4]	IC50 [5]	IC50 [6]	IC50 [7]	IC50 [8]	IC50 (KRas^G12R)
CCc1c(F)ccc2cc(O)cc(-c3ncc4c(N5CC6CCC(C5)C6C(=O)NC)nc(OC[C@@]56CCCN5C[C@H](F)C6)nc4c3F)c12 (stereo partly drawn) [Example 850, (1R,5S,8S)-3-(7-(8-ethyl-7-fluoro-3-hydroxynaphthalen-1-yl)-8-fluoro-2-(((2R,7aS)-2-fluorotetrahydro-1H-pyrrolizin-7a(5H)-yl)methoxy)pyrido[4,3-d]pyrimidin-4-yl)-N-methyl-3-azabicyclo[3.2.1]octane-8-carboxamide]	> 10000 nM	8 nM	6 nM	171 nM	862 nM	1450 nM	150 nM	4 nM	2280 nM	83 nM	10 nM
CCc1c(F)ccc2cc(O)cc(-c3ncc4c(N5CCC[C@@](C)(O)C5)nc(OCC56CCCN5CC(=C(F)F)C6)nc4c3F)c12 (stereo partly drawn) [Example 792, (3R)-1-(2-((2-(difluoromethylene)tetrahydro-1H-pyrrolizin-7a(5H)-yl)methoxy)-7-(8-ethyl-7-fluoro-3-hydroxynaphthalen-1-yl)-8-fluoropyrido[4,3-d]pyrimidin-4-yl)-3-methylpiperidin-3-ol]	744 nM	< 2 nM	2 nM	13 nM	9 nM	4 nM	8 nM	2 nM	32 nM	4 nM	2 nM
CCc1c(F)ccc2cc(O)cc(-c3ncc4c(N5CC6CCC(C5)C6CC(=O)N(C)C)nc(OC[C@@]56CCCN5C[C@H](F)C6)nc4c3F)c12 (stereo partly drawn) [Example 860, 2-((1R,5S,8S)-3-(7-(8-ethyl-7-fluoro-3-hydroxynaphthalen-1-yl)-8-fluoro-2-(((2R,7aS)-2-fluorotetrahydro-1H-pyrrolizin-7a(5H)-yl)methoxy)pyrido[4,3-d]pyrimidin-4-yl)-3-azabicyclo[3.2.1]octan-8-yl)-N,N-dimethylacetamide]	> 10000 nM	13 nM	91 nM	600 nM	2760 nM	2600 nM	455 nM	7 nM	1120 nM	395 nM	68 nM
CCc1c(F)ccc2cc(O)cc(-c3ncc4c(N5CC6CCC(CO)(C6)C5)nc(OC[C@@]56CCCN5C[C@H](F)C6)nc4c3F)c12 (stereo partly drawn) [Example 812, 5-ethyl-6-fluoro-4-(8-fluoro-2-(((2R,7aS)-2-fluorotetrahydro-1H-pyrrolizin-7a(5H)-yl)methoxy)-4-(1-(hydroxymethyl)-3-azabicyclo[3.2.1]octan-3-yl)pyrido[4,3-d]pyrimidin-7-yl)naphthalen-2-ol]	> 10000 nM	4 nM	12 nM	324 nM	922 nM	743 nM	177 nM	68 nM	363 nM	166 nM	6 nM
CCc1c(F)ccc2cc(O)cc(-c3ncc4c(N5CCOC[C@]6(CCO6)C5)nc(OC[C@@]56CCCN5C[C@H](F)C6)nc4c3F)c12 [Example 837, 5-ethyl-6-fluoro-4-(8-fluoro-2-(((2R,7aS)-2-fluorotetrahydro-1H-pyrrolizin-7a(5H)-yl)methoxy)-4-((S)-1,6-dioxa-9-azaspiro[3.6]decan-9-yl)pyrido[4,3-d]pyrimidin-7-yl)naphthalen-2-ol]	2990 nM	< 2 nM	< 2 nM	45 nM	11 nM	4 nM	6 nM	3 nM	23 nM	14 nM	< 2 nM
CCc1c(F)ccc2cc(O)cc(-c3ncc4c(N5CCC[C@@](C)(O)C5)nc(OCC56CC5CN(C)C6)nc4c3F)c12 (stereo partly drawn) [Example 827, (3R)-1-(7-(8-ethyl-7-fluoro-3-hydroxynaphthalen-1-yl)-8-fluoro-2-((3-methyl-3-azabicyclo[3.1.0]hexan-1-yl)methoxy)pyrido[4,3-d]pyrimidin-4-yl)-3-methylpiperidin-3-ol]	> 10000 nM	< 2 nM	< 2 nM	180 nM	159 nM	67 nM	68 nM	41 nM	242 nM	92 nM	3 nM
C=C1[C@@H]2CC[C@H]1CN(c1nc(OC[C@@]34CCCN3C[C@H](F)C4)nc3c(F)c(-c4cc(O)cc5ccc(F)c(CC)c45)ncc13)C2 [Example 849, 5-ethyl-6-fluoro-4-(8-fluoro-2-(((2R,7aS)-2-fluorotetrahydro-1H-pyrrolizin-7a(5H)-yl)methoxy)-4-((1R,5S)-8-methylene-3-azabicyclo[3.2.1]octan-3-yl)pyrido[4,3-d]pyrimidin-7-yl)naphthalen-2-ol]	> 10000 nM	9 nM	65 nM	1780 nM	1270 nM	3090 nM	286 nM	189 nM	1000 nM	802 nM	24 nM

Now from value to compound:

IC50 [1]	IC50 (KRas^G12V)	IC50 (KRas^G12D)	IC50 [2]	IC50 [3]	IC50 [4]	IC50 [5]	IC50 [6]	IC50 [7]	IC50 [8]	IC50 (KRas^G12R)	SMILES
> 10000 nM	116 nM	210 nM	1200 nM	2760 nM	3600 nM	922 nM	290 nM	4520 nM	271 nM	26 nM	CCc1c(F)ccc2cc(O)cc(-c3ncc4c(N5CC6CCC(C5)C6(F)F)nc(OC[C@@]56CCCN5C[C@H](F)C6)nc4c3F)c12 [Example 869, 4-(4-(8,8-difluoro-3-azabicyclo[3.2.1]octan-3-yl)-8-fluoro-2-(((2R,7aS)-2-fluorotetrahydro-1H-pyrrolizin-7a(5H)-yl)methoxy)pyrido[4,3-d]pyrimidin-7-yl)-5-ethyl-6-fluoronaphthalen-2-ol]
> 10000 nM	60 nM	99 nM	1400 nM	873 nM	2450 nM	623 nM	19 nM	2420 nM	368 nM	20 nM	CCc1c(F)ccc2cc(O)cc(-c3ncc4c(N5CC6CCC(CO)(C5)C6(F)F)nc(OC[C@@]56CCCN5C[C@H](F)C6)nc4c3F)c12 (stereo partly drawn) [Example 901, 4-(4-(8,8-difluoro-1-(hydroxymethyl)-3-azabicyclo[3.2.1]octan-3-yl)-8-fluoro-2-(((2R,7aS)-2-fluorotetrahydro-1H-pyrrolizin-7a(5H)-yl)methoxy)pyrido[4,3-d]pyrimidin-7-yl)-5-ethyl-6-fluoronaphthalen-2-ol]
2510 nM	< 2 nM	< 2 nM	167 nM	112 nM	30 nM	21 nM	4 nM	121 nM	53 nM	< 2 nM	CCc1c(F)ccc2cc(O)cc(-c3ncc4c(N5CCC[C@@](C)(O)C5)nc(OC[C@@]56CCCN5[C@H](COCC5CCCC5)CC6)nc4c3F)c12 [Example 904, (R)-1-(2-(((3S,7aS)-3-((cyclopentylmethoxy)methyl)tetrahydro-1H-pyrrolizin-7a(5H)-yl)methoxy)-7-(8-ethyl-7-fluoro-3-hydroxynaphthalen-1-yl)-8-fluoropyrido[4,3-d]pyrimidin-4-yl)-3-methylpiperidin-3-ol]
> 10000 nM	3 nM	5 nM	> 10000 nM	> 10000 nM	> 10000 nM	2540 nM	1240 nM	> 10000 nM	7040 nM	2 nM	C[C@@H]1C[C@@H]1c1c(Cl)cc2[nH]ncc2c1-c1ncc2c(N3CCC[C@]4(C3)NC(=O)NC4=O)nc(OCC34CCCN3CCC4)nc2c1F (atropisomer, axis not shown) [Example 887, (R)-7-(7-((R)-6-chloro-5-((1S,2R)-2-methylcyclopropyl)-1H-indazol-4-yl)-8-fluoro-2-((tetrahydro-1H-pyrrolizin-7a(5H)-yl)methoxy)pyrido[4,3-d]pyrimidin-4-yl)-1,3,7-triazaspiro[4.5]decane-2,4-dione]
